{
  "source": "patent US11040021B2",
  "about": "“Treatment of diseases associated with hepatic stellate cell activation using ammonia-lowering therapies” (UCL Business PLC, priority 2014, dated 2021)",
  "key": {"[1]": {"system": "primary human hepatic stellate cells (hHSCs)", "assay": "hHSC recovery with glutamine and GS inhibition (MSO) under ammonia", "type": "cell-based", "experimental": "(§1) Primary human hepatic stellate cells (hHSCs) were cultured. Effects of an NH4Cl challenge (0.1-10 mM over 24-72 hrs) on hHSC proliferation (BrdU), metabolic activity (MTS assay), viability (Neutral-Red), ultrastructural changes (TE-M) and gene/protein expression (q-PCR/Western blot) were studied. To test recovery, ammonia treated cells were replenished with glutamine and in separate experiments, pre-treated with L-methionine-sulfoximine (MSO-GS inhibitor) to determine the importance of glutamine synthetase (GS)."}, "SOD2": {"system": "SOD2", "assay": "SOD2 mRNA expression in hHSC", "type": "cell-based, human"}, "[2]": {"system": "primary human hepatic stellate cells (hHSCs)", "excerpt": "(§2) Primary hHSCs were isolated from wedge sections of liver tissue, obtained from patients undergoing surgery in the Royal Free Hospital after giving informed consent (EC01.14-RF). Cells were isolated according to Mederacke et al. (Nature Protocols 2015, 10:305-315) with modifications for human liver as described in Rombouts K, Carloni V. Determination and characterization of tetraspanin-associated phosphoinositide-4 kinases in primary and neoplastic liver cells. In: Waugh MG, editor. Lipid Signaling Protocols, 2 ed. New York: Springer Science+Business Media; 2015. p. 203-212). Briefly, 10 g of total human liver tissue was digested with 0.01% Collagenase, 0.05% Pronase and 0.001% DNase I without performing perfusion. The homogenate was filtered through a 100 μm cell strainer and the flow-through was centrifuged at 50×g for 2 minutes at 4° C. After washing the supernatant, gradient centrifugation was performed at 1400×g for 17 minutes at 4° C. using an 11.5% Optiprep gradient. Finally, the interface was collected and washed. Purity of hHSCS was established by detection of CD140b (PDGFRbeta), CD29 (Integrin beta 1) and Cytoglobin (CYGB).\nThe obtained HSCs were cultured in RPMI supplemented with 20% fetal bovine serum (FBS), GLUTAMAX, nonessential amino acids 1×, 1.0 mM sodium pyruvate, 1× antibiotic-antimycotic (all Life Technologies), referred to as complete HSC medium hereinafter. […]"}, "[3]": {"system": "primary human hepatic stellate cells (hHSCs)", "experimental": "as §1\n(§3) In this example, primary human HSCs (hHSCs) were isolated and cultured. Proliferation (BrdU), metabolic activity (MTS), morphology (TEM, light- and immunofluorescence microscopy), HSC activation markers, ability to contract, and changes in oxidative status (ROS) were evaluated to identify effects of ammonia challenge (50 μM, 100 μM, 300 μM) over 24-72 hours.\nas §2\nThe obtained HSCs were cultured in RPMI supplemented with 20% fetal bovine serum (FBS), GLUTAMAX, nonessential amino acids 1×, 1.0 mM sodium pyruvate, 1× antibiotic-antimycotic (all Life Technologies), referred to as complete HSC medium hereinafter. Experiments described in this study were performed on hHSCs of at least three independent cell preparations between passage 3 and 8.\nCells were seeded (density 26×10^3/cm^2) under basic serum-rich conditions (CM complete medium) for 24 hours, followed by serum deprivation for another 24 hours (SFM). Exogenous glutamine was removed from the culture medium to avoid uncontrolled generation of ammonia. Specific treatment with NH4Cl treatments were replaced daily for the duration of the experiment.", "remark": "listed apart in the source"}, "[4]": {"system": "primary human hepatic stellate cells (hHSCs)", "conditions": "after 3 hours, sustained after 24 hours, vs control", "experimental": "as §3"}, "[5]": {"system": "α-SMA, vimentin, PDGF-Rβ, Myosin IIa and IIb, p-38 MAPK, Collagen type I", "experimental": "as §1, §3"}, "[6]": {"system": "MMP2, TIMP1, Interleukin-1β, Interleukin 6, Interleukin 8", "experimental": "as §1, §3"}, "[7]": {"system": "primary human hepatic stellate cells (hHSCs)", "conditions": "up to 72 hours", "experimental": "The formation of reactive oxygen species (ROS) was measured using Image-IT™ LIVE Green Reactive Oxygen Species Detection Kit. In FIG. 3B, mean fluorescence intensity (MFI) of ROS signal was normalized according to the number of cells (Hoechst 33342), and expressed as percentage of control.\nas §3"}, "[8]": {"conditions": "Example 1, NH4Cl challenge 0.1-10 mM over 24-72 hrs"}, "[9]": {"conditions": "different concentrations of ammonia (50, 100, 300 μM), 72 hours"}, "[10]": {"conditions": "in comparison to MSO treatment only"}, "[11]": {"conditions": "increasing concentrations of ammonia"}},
  "data": [
    {"smiles": "NC(=O)CC[C@H](N)C(=O)O", "note": "[L-glutamine]", "values": [
      {"measurement": "Ammonia-induced ER enlargement on replenishing the culture with L-glutamine", "setting": "[1]; Example 1", "value": "reversible"}
    ]},
    {"smiles": "CS(=N)(=O)CC[C@H](N)C(=O)O", "note": "(stereo partly drawn) [MSO, L-Methionine sulfoximine]", "values": [
      {"measurement": "Effect of MSO together with hyperammonemia on hHSC", "setting": "[1]; Example 1, MSO pre-treatment", "value": "induced cell detachment and prevention of recovery"}
    ]},
    {"smiles": "CC(=O)N[C@@H](CS)C(=O)O", "note": "[NAC, N-acetyl cysteine]", "values": [
      {"measurement": "Ammonia-induced SOD2 mRNA expression after NAC pre-treatment", "setting": "SOD2; 3 hours of ammonia treatment", "value": "no impact"},
      {"measurement": "Ammonia-induced SOD2 mRNA expression after NAC pre-treatment", "setting": "SOD2; 24 hours of ammonia treatment", "value": "almost completely abolished"}
    ]},
    {"smiles": "N", "note": "[ammonia, NH4Cl]", "values": [
      {"measurement": "Cell death (Cell Death Detection ELISA)", "setting": "[2]", "value": "did not cause cell death"},
      {"measurement": "Filamentous actin in the cytoskeleton (TRITC-Phalloidin staining)", "setting": "[3]; 72 hours", "value": "dose-dependent disruption of filamentous actin"},
      {"measurement": "Intracellular ER (ultrastructure)", "setting": "[3]; Example 1", "value": "dose-dependent intracellular ER enlargement"},
      {"measurement": "Metabolic activity", "setting": "[3]; [8]", "value": "time dependent decreases"},
      {"measurement": "Proliferation", "setting": "[3]; [8]", "value": "time dependent decreases"},
      {"measurement": "Cell phenotype", "setting": "[3]; Example 1, even at 50-100 umol/L", "value": "cell swelling and a myo-fibroblast-like phenotype"},
      {"measurement": "Cell proliferation (BrdU assay)", "setting": "[3]; [9]", "value": "significant inhibition"},
      {"measurement": "Metabolic activity (MTS assay)", "setting": "[3]; [9]", "value": "significant inhibition"},
      {"measurement": "Ultrastructural change (TEM)", "setting": "[3]; dose-dependent, FIG. 2A", "value": "dramatic dose-dependent change in the cytosol and marked presence of translucent vacuoles"},
      {"measurement": "Metabolic activity after MSO pretreatment followed by ammonia", "setting": "[3]; [10]", "value": "did not further inhibit"},
      {"measurement": "Proliferation after MSO pretreatment followed by ammonia", "setting": "[3]; [10]", "value": "did not further inhibit"},
      {"measurement": "Contraction of hHSCs cultured on collagen gels", "setting": "[4]", "value": "significant ability to contract"},
      {"measurement": "P-38 MAPK expression", "setting": "[5]", "value": "dose-dependent response"},
      {"measurement": "PDGFR-β protein", "setting": "[5]", "value": "significant up-regulation"},
      {"measurement": "Vimentin synthesis", "setting": "[5]; 300 μM ammonia", "value": "increased"},
      {"measurement": "α-SMA protein expression", "setting": "[5]; FIG. 4A", "value": "significantly increase"},
      {"measurement": "Myosin IIa protein", "setting": "[5]; [11]", "value": "significantly modulated"},
      {"measurement": "Myosin IIb protein", "setting": "[5]; [11]", "value": "significantly modulated"},
      {"measurement": "Collagen type I protein", "setting": "[5]; not statistically significant", "value": "tendency to increase"},
      {"measurement": "Interleukin 8 mRNA expression", "setting": "[6]", "value": "did not modify"},
      {"measurement": "MMP2 mRNA expression", "setting": "[6]; FIG. 4B", "value": "strong and significant up-regulation"},
      {"measurement": "TIMP1 mRNA expression", "setting": "[6]; FIG. 4B", "value": "down-regulated"},
      {"measurement": "Interleukin-1β mRNA expression", "setting": "[6]; ammonia 300 μM for 72 hours", "value": "significantly induced"},
      {"measurement": "Interleukin 6 mRNA expression level", "setting": "[6]; ammonia at 50 μM and 100 μM", "value": "significantly up-regulated"},
      {"measurement": "ROS production", "setting": "[7]", "value": "produced significant reactive oxygen species"},
      {"measurement": "SOD2 mRNA expression", "setting": "SOD2; ammonia, after 3 hours, sustained at 24 hours", "value": "strong increase"}
    ]}
  ]
}
